The numbers were not newly measured in patent US20260335339A1, “COMPOSITIONS FOR DERMAL/TRANSDERMAL DELIVERY AND COSMETIC USE” (YISSUM RESEARCH DEVELOPMENT COMPANY OF THE HEBREW …, priority 2022, published 2026), which cites them from elsewhere.

For the data set the following is noted: lipophilic fluorescent molecule.

Regarding `O=C1OC2(c3ccc(O)cc3Oc3cc(O)ccc32)c2ccc(N=C=S)cc21` [FITC, fluorescein isothiocyanate], the log p was 4.3.
